Data: the NIST ThermoML archive (doi:10.1021/je900058p)
± gives the expanded uncertainty stated by the source.

Experiments:
[1] = refractive index (Na D-line) (dimensionless); settings: 293.13 K; 101.33 kPa; Liquid; Standard Abbe refractometry
[2] = Liquid; for mass density: 293.13 K, 101.33 kPa

| Compound | refractive index [1] | mass density [2] | vapor or sublimation pressure ([2]; 359.51 K) | vapor or sublimation pressure ([2]; 379.52 K) | vapor or sublimation pressure ([2]; 392.57 K) | vapor or sublimation pressure ([2]; 400.69 K) | vapor or sublimation pressure ([2]; 383.1 K) | vapor or sublimation pressure ([2]; 404.24 K) | vapor or sublimation pressure ([2]; 417.99 K) | vapor or sublimation pressure ([2]; 426.54 K) | vapor or sublimation pressure ([2]; 410.86 K) |
| --- | --- | --- | --- | --- | --- | --- | --- | --- | --- | --- | --- |
| CCCCC(C)=O [2-hexanone] | 1.4008 ± 0.0007 | 811.2 ± 0.4 kg/m3 | 26.66 ± 0.27 kPa | 53.33 ± 0.32 kPa | 79.99 ± 0.45 kPa | 101.32 ± 0.53 kPa |  |  |  |  |  |
| COc1ccccc1 [anisole] | 1.5171 ± 0.0007 | 994.1 ± 0.2 kg/m3 |  |  |  |  | 26.66 ± 0.25 kPa | 53.33 ± 0.3 kPa | 79.99 ± 0.43 kPa | 101.32 ± 0.5 kPa |  |
| CCCCCO [pentan-1-ol] | 1.4098 ± 0.0007 | 814.5 ± 0.4 kg/m3 |  |  |  |  |  |  |  |  | 101.32 ± 1 kPa |
